From ChEMBL document CHEMBL4507276 (2021)

Experiments:
[1] = system: Leucine-rich repeat serine/threonine-protein kinase 2 (Homo sapiens), Q5S007 [G2019S]; settings: Compound concentration 1000.0 nM
[2] = target: Sodium-dependent noradrenaline transporter (Homo sapiens) (UniProt P23975); settings: Compound concentration 10.0 uM
[3] = target: T1, Tyrosine-protein kinase Tec (Homo sapiens) (UniProt P42680); settings: Compound concentration 1000.0 nM
T1 sequence (whole entry): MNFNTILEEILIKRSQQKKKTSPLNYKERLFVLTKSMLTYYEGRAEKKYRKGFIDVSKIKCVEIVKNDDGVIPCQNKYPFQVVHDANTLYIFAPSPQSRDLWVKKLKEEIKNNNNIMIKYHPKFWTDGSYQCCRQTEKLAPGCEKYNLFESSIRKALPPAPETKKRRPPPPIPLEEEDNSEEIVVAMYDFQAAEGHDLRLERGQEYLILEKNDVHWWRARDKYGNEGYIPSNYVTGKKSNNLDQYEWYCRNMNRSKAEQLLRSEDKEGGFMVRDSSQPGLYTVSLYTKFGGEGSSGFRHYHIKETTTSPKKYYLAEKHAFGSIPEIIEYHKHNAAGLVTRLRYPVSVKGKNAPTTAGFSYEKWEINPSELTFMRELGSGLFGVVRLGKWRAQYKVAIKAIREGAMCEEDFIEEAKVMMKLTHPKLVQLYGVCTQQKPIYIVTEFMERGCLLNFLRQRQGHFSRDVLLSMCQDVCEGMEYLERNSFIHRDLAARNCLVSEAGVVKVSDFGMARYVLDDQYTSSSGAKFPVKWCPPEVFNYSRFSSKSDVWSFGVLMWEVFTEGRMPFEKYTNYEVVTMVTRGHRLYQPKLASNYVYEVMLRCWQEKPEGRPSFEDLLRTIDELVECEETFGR

[4] = target: Serine/threonine-protein kinase PknB (Mycobacterium tuberculosis) (UniProt P9WI81); settings: Compound concentration 1000.0 nM
[5] = target: T2, Beta-adrenergic receptor kinase 1 (Homo sapiens) (UniProt P25098); settings: Compound concentration 1000.0 nM
T2 sequence (whole entry): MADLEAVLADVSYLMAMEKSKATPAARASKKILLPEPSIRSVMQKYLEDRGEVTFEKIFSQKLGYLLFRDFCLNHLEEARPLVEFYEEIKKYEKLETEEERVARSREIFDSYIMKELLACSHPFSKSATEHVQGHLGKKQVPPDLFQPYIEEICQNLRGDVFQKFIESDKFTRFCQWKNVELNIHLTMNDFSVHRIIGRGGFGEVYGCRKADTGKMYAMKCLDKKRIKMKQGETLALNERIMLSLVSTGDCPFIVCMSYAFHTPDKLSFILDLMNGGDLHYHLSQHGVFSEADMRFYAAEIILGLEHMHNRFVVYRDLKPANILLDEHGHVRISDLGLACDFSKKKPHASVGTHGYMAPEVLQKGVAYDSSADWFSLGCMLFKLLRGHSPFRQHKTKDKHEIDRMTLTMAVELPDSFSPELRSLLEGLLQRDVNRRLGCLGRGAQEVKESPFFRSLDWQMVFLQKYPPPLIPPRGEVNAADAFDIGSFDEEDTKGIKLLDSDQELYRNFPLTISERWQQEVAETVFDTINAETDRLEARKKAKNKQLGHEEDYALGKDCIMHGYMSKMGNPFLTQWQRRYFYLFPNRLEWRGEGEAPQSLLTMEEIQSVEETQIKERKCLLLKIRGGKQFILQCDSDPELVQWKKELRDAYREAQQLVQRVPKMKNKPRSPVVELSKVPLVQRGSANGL

[6] = target: Glycogen synthase kinase-3 beta (Homo sapiens) (UniProt P49841); settings: Compound concentration 1000.0 nM
Chain of Glycogen synthase kinase-3 beta (Homo sapiens) (P49841 whole entry, looked up): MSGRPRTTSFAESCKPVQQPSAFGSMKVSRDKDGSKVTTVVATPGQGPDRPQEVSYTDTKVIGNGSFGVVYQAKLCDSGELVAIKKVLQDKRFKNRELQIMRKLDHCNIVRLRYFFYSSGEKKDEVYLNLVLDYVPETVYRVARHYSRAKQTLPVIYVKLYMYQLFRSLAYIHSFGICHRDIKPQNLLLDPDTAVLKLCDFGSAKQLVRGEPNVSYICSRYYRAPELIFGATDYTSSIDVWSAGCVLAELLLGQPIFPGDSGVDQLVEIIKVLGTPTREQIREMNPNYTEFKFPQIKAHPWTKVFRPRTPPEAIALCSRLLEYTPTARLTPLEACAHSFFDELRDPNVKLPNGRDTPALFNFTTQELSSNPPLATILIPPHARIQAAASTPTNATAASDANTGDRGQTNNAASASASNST

[7] = target: Ephrin type-A receptor 4 (Homo sapiens) (UniProt P54764); settings: Compound concentration 1000.0 nM
[8] = target: T3, Serine/threonine-protein kinase NLK (Homo sapiens) (UniProt Q9UBE8); settings: Compound concentration 1000.0 nM
T3 sequence (whole entry): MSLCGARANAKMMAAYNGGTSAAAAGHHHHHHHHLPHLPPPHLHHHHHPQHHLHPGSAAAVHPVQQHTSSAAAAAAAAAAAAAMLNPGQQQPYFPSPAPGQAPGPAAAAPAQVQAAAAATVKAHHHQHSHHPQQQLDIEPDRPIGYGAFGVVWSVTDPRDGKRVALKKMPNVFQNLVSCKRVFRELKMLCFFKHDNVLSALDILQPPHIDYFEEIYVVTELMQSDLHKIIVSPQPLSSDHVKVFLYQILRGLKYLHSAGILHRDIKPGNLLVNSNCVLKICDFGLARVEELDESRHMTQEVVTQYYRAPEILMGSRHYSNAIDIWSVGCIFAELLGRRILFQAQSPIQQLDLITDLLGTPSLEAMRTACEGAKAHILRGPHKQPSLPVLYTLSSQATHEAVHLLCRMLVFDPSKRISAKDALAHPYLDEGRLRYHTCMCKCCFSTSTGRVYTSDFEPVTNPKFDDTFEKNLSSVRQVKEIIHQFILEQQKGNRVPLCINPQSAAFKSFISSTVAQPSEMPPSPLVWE

[9] = target: 3-phosphoinositide-dependent protein kinase 1 (Homo sapiens) (UniProt O15530); settings: Compound concentration 1000.0 nM
Chain of 3-phosphoinositide-dependent protein kinase 1 (Homo sapiens) (O15530 whole entry): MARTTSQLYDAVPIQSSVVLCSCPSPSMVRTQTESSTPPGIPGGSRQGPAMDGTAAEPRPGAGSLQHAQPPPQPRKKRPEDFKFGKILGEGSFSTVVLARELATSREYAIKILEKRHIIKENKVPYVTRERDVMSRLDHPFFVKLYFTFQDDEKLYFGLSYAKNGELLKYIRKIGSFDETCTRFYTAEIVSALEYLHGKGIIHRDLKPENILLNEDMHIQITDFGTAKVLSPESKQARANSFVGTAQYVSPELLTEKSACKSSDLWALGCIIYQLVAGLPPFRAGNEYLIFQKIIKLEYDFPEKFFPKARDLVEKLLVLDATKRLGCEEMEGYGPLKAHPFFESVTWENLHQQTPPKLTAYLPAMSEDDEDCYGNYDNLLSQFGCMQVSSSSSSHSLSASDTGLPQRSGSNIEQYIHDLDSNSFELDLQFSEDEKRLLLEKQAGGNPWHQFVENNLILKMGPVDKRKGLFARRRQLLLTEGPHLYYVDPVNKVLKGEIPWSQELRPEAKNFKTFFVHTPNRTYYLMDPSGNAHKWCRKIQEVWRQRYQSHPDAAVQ

[10] = target: Proto-oncogene tyrosine-protein kinase Src (Homo sapiens) (UniProt P12931); settings: Compound concentration 1000.0 nM
Chain of Proto-oncogene tyrosine-protein kinase Src (Homo sapiens) (P12931 2-536 limits assumed): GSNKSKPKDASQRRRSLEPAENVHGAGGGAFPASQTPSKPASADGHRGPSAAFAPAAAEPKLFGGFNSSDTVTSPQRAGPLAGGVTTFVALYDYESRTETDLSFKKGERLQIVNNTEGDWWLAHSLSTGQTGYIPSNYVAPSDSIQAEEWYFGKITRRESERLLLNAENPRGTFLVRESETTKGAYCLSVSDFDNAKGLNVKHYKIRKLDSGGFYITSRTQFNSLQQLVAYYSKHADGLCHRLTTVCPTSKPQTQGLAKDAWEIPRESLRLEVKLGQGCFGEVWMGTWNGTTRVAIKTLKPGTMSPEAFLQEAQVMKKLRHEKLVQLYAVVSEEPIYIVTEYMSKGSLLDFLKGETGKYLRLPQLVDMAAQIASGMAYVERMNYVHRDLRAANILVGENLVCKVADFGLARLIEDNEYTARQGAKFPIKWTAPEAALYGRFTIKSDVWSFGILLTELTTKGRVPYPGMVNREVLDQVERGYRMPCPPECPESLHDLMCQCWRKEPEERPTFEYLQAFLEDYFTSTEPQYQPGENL

[11] = system: Phosphatidylinositol 4,5-bisphosphate 3-kinase catalytic subunit alpha isoform (Homo sapiens), P42336 [Q546K]; settings: Compound concentration 1000.0 nM
Chain of Phosphatidylinositol 4,5-bisphosphate 3-kinase catalytic subunit alpha isoform (Homo sapiens), P42336 [Q546K] (P42336 whole entry Q546K, canonical isoform): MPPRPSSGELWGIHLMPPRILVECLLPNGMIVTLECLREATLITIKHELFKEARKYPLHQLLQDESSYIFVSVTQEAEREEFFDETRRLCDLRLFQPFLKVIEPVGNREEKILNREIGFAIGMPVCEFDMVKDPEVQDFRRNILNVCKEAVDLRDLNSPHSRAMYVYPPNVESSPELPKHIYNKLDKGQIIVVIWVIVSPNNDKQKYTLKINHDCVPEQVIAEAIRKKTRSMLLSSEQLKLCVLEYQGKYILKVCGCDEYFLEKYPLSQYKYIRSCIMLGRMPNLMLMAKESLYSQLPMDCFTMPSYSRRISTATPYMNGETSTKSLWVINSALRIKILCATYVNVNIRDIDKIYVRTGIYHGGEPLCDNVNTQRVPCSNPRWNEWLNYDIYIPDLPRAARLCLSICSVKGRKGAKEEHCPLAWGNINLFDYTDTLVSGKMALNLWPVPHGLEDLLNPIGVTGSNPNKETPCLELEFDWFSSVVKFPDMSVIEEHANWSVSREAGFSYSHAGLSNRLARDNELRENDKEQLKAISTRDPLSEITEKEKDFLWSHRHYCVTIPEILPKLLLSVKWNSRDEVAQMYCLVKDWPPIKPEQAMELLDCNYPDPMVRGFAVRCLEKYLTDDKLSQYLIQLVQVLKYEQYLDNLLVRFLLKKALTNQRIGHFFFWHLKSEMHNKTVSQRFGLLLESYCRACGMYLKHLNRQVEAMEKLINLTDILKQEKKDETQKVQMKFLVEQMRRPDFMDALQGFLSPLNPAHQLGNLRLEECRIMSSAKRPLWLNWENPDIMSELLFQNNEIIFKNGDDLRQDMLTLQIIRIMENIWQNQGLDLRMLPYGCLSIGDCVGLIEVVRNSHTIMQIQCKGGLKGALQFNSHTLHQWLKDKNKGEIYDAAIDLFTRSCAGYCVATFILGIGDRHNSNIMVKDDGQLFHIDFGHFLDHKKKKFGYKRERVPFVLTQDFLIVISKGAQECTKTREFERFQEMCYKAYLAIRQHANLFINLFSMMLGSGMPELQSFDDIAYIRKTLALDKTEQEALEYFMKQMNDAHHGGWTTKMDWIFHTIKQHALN

[12] = target: Ribosomal protein S6 kinase alpha-4 (Homo sapiens) (UniProt O75676); settings: Compound concentration 1000.0 nM

Chain of Leucine-rich repeat serine/threonine-protein kinase 2 (Homo sapiens), Q5S007 [G2019S] (Q5S007 whole entry G2019S): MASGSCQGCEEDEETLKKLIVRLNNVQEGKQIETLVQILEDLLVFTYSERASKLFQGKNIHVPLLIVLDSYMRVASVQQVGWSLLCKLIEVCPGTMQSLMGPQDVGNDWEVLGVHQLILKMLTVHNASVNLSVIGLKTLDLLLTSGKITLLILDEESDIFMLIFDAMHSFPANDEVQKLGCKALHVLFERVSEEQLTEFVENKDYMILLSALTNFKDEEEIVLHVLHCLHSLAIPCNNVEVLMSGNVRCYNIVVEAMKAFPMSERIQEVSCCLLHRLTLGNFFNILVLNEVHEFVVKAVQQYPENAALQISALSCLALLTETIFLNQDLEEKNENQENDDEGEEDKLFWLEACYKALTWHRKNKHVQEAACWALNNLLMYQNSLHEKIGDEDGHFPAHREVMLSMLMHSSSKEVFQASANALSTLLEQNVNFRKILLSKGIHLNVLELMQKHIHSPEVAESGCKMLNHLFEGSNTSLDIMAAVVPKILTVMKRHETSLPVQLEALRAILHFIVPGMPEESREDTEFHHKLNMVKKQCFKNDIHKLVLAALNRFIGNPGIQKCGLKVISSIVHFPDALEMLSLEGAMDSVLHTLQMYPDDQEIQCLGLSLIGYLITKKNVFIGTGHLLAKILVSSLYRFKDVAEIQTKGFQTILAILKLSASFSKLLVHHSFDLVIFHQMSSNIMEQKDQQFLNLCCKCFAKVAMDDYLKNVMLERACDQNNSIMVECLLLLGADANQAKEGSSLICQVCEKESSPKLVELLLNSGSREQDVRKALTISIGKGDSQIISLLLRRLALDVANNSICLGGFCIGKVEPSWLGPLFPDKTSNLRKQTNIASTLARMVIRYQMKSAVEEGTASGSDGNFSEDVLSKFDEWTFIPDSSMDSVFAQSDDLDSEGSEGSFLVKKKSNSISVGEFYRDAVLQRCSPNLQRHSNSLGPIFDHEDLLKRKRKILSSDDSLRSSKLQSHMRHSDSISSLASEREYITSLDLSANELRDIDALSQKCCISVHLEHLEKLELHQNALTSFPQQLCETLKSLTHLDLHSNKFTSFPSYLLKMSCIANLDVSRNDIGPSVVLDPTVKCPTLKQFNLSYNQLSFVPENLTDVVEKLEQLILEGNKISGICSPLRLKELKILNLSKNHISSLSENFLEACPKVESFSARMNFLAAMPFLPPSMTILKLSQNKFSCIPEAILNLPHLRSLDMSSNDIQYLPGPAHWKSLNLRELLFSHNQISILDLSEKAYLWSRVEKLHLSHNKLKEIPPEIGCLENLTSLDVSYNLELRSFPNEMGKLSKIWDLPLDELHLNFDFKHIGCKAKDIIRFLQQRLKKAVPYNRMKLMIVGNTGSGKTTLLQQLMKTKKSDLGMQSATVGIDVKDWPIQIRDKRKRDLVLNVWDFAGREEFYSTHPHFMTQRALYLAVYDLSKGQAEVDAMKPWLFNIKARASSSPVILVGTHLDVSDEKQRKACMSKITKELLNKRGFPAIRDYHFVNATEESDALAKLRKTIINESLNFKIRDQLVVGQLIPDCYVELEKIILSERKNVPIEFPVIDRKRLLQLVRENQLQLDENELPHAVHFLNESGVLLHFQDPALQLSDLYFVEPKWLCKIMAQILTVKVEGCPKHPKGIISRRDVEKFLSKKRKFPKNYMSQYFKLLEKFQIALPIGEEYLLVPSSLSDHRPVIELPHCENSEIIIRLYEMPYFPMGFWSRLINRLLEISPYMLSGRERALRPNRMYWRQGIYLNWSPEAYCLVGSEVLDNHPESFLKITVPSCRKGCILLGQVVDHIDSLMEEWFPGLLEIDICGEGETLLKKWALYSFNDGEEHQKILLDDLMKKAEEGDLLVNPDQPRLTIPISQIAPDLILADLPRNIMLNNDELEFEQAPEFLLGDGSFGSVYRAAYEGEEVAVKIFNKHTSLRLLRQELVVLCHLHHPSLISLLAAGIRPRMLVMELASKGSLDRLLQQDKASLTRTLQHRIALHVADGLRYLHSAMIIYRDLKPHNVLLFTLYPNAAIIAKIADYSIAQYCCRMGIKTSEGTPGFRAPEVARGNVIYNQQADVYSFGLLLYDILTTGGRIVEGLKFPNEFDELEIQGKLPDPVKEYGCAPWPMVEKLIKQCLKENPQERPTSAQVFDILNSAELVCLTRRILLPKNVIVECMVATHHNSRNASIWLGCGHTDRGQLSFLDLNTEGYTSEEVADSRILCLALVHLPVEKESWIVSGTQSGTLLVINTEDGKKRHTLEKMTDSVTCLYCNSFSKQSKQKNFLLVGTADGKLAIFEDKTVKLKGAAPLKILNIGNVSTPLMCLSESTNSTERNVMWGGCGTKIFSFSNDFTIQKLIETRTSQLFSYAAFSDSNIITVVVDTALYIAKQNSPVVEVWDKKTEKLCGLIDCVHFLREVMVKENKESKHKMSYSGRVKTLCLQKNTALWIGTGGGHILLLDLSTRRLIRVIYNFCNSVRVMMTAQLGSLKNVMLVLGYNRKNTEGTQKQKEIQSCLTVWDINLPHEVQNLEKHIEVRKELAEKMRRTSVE

CN(C)C(=O)Cn1cc(-c2nc(C3(c4ccc(-c5cnc(N)nc5)cc4)CC3)no2)cn1 [BI 0153]
inactive: residual activity [1] 100% | inhibition [2] 8.33% | residual activity [3] 93% | residual activity [4] 85% | residual activity [5] 67% | residual activity [6] 81% | residual activity [7] 100% | residual activity [8] 94% | residual activity [9] 82% | residual activity [10] 84% | residual activity [11] 100% | residual activity [12] 86%

CN(C)C(=O)Cn1cc(-c2nc([C@@](C)(c3ccc(-c4cnc(N)nc4)cc3)C3CC3)no2)cn1 [BI 665915]
inactive: residual activity [1] 100% | inhibition [2] 18.9% | residual activity [3] 93% | residual activity [4] 100% | residual activity [5] 78% | residual activity [6] 100% | residual activity [7] 100% | residual activity [8] 95% | residual activity [9] 99% | residual activity [10] 90% | residual activity [11] 95% | residual activity [12] 72%
